Measurements published in EP1709964A2, “A method of cosmetic depigmentation care by applying at least one aurone” (ENGELHARD LYON, priority 2005, dated 2006).
Like-named read-outs stand apart in the source and are kept apart here.

Experiments:
Human tyrosinase = target: T1, Human tyrosinase (Homo sapiens, UniProt P14679); assay: Inhibition of human tyrosinase in a monolayer after 24 h application of the actives on normal human melanocytes (MBTH/L-Dopa, OD 490 nm/protein); type: cell-based; settings: for inhibition at 100 µM / inhibition at 10 µM: read-out: Inhibition of human tyrosinase after application on normal human melanocytes, percentage inhibition; for Inhibition (%): model of Example 15
T1 construct: Normal human melanocytes (originating from abdominal plasty) are sown in a 24-well plate; endogenous in cells; host or cells: normal human melanocytes from abdominal plasty; donors of light, brown and black phototype
T1 sequence (P14679 19-529): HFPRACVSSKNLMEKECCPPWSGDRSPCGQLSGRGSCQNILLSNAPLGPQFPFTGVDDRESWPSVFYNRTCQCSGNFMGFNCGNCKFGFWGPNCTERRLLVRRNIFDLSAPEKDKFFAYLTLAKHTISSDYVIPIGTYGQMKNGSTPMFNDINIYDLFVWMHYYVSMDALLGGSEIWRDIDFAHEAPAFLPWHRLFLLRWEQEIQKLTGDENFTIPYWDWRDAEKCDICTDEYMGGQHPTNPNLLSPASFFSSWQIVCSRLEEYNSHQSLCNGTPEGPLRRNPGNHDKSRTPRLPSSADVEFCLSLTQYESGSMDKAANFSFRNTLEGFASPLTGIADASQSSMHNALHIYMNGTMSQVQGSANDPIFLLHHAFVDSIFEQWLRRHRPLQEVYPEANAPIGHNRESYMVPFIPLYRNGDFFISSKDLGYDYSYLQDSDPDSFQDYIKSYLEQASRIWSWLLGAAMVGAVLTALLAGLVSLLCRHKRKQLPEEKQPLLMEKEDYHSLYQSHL
Experimental: Normal human melanocytes (originating from abdominal plasty) are sown in a 24-well plate at the rate of 80,000 cells per well. They are cultivated up to confluence and the actives are applied for 24 hours in the culture media. After 24 hours, the media are removed and the melanocytes are picked up by mechanical action. An extraction is made by heat shock and the supernatants are then recovered and then incubated with MBTH (Sigma) and L-Dopa (Sigma).
The compound obtained in Example 9b was tested on melanocytes originating from various donors but of light phototypes according to the method described in Example 15. […] Table 6 : Inhibition of tyrosinase by compound 9b on 4 different donors.
The compound obtained in Example 9b is tested on cultures of melanocytes originating from 2 donors of brown phototypes and from one donor of negroid phototype. The method applied is that described in Example 15.
A study is made with molecules known in the literature for their depigmenting activity. These molecules are applied to the model described in Example 15 so as to compare their efficiency with respect to the aurones described above.

tyrosinase from mushroom = assay: In vitro test of the inhibition of isolated tyrosinase (L-DOPA to dopachrome, OD 490 nm); type: biochemical; settings: kojic acid at 0.01%
Excerpt: Tyrosinase catalyses the formation of L-dopaquinone, and then dopachrome, from L-Dopa. Dopachrome is a colored compound which is quantifiable by visible spectrophotometry at 490 nm. The use of an active which is capable of modifying the enzymatic activity manifests itself by a variation in the optical density at 490nm.
The ratio of the rates of formation of the dopachrome enables the activations or the inhibitions obtained with the various molecules tested to de determined precisely.
The sample to be tested is incubated in the presence of tyrosinase from mushroom (Sigma) for 5 minutes under agitation. L-DOPA (Sigma), substrate of the tyrosinase, is incubated for 10 minutes in the dark in the presence or the absence of the molecules to be tested. The calculation of the percentage inhibition is made by comparing the OD of the test to the OD of the negative control without molecule.
Within the context of this in vitro test, the aurone derivatives were tested at final concentrations of 10^-4M and 10^-5M.

Row | inhibition at 100 µM (Human tyrosinase; 10^-4M, 24 hours) | inhibition at 10 µM (Human tyrosinase; 10^-5M, 24 hours) | SMILES | also measured
1 | -59.1 ± 23% | -40.8 ± 7.68% | O=c1cc(-c2ccc(O)cc2)oc2cc(O)cc(O)c12 [Apigenin, reference compound] | –
2 | – | -6.1 ± 22.9% | O=c1cc(-c2ccccc2)oc2cc(O)cc(O)c12 [Chrysin, reference compound] | –
3 | 0% | 23.9% | CCc1ccc(/C=C2\Oc3cc(O)ccc3C2=O)cc1 [Example 3a, (Z)-2-(4'-Ethyl)Benzylidene-6-Hydroxybenzofuran-3(2H)-one] | –
4 | 0% | 0% | CCc1ccccc1/C=C1\Oc2cc(O)ccc2C1=O [Example 3b, (Z)-2-(2'-Ethyl)Benzylidene-6-Hydroxybenzofuran-3(2H)-one] | –
5 | 0% | 1.44% | COc1cc(OC)c2c(c1)O/C(=C\c1ccc(S(=O)(=O)O)cc1)C2=O [Example 5e, (Z)-4,6-dimethoxy-2-(4'-sulfonatebenzylidene)benzofuran-3(2H)-one] | –
6 | 9.36% | 2.88% | COc1cc(OC)c2c(c1)O/C(=C\c1ccc(S(=O)(=O)O)cc1S(=O)(=O)O)C2=O [Example 5f, (Z)-4,6-dimethoxy-2-(2',4'-disulfonatebenzylidene)benzofuran-3(2H)-one] | –
7 | 19.5% | 6.4% | COc1cc(OC)c2c(c1)O/C(=C\c1ccco1)C2=O [Example 5m, (Z)-4,6-Dimethoxy-2-[(furan)methylene]benzofuran-3(2H)-one] | –
8 | 7.8% | 0% | CCc1ccc(/C=C2\Oc3cc(OC)cc(OC)c3C2=O)o1 [Example 5n, (Z)-4,6-Dimethoxy-2-[(5-ethylfuran)methylene]benzofuran-3(2H)-one] | –
9 | 23.2% | 12.1% | COc1cc(OC)c2c(c1)O/C(=C\c1cc(C)c(C)o1)C2=O [Example 5o, (Z)-4,6-Dimethoxy-2-[(4,5-dimethylfuran)methylene]benzofuran-3(2H)-one] | –
10 | 31.3% | 6.4% | COc1cc(OC)c2c(c1)O/C(=C\c1cccs1)C2=O [Example 5p, (Z)-4,6-Dimethoxy-2-[(thiophene)methylene]benzofuran-3(2H)-one] | –
11 | 4.8% | 0% | COc1cc(OC)c2c(c1)O/C(=C\c1ccc(C)s1)C2=O [Example 5q, (Z)-4,6-Dimethoxy-2-[(5-methylthiophene)methylene]benzofuran-3(2H)-one] | –
12 | 11.9% | 2.1% | CCc1ccc(/C=C2\Oc3cc(OC)cc(OC)c3C2=O)s1 [Example 5r, (Z)-4,6-Dimethoxy-2-[(5-ethylthiophene)methylene]benzofuran-3(2H)-one] | –
13 | – | – | COc1cc(OC)c2c(c1)O/C(=C\c1ccc[nH]1)C2=O [Example 5s, (Z)-4,6-Dimethoxy-2-[(pyrrole)methylene]benzofuran-3(2H)-one] | inhibition at 10 µM (Human tyrosinase): 0%; inhibition at 100 µM (Human tyrosinase): 13.7%
14 | 5.1% | 0% | COc1cc(OC)c2c(c1)O/C(=C\c1[nH]c(C)cc1C)C2=O [Example 5t, (Z)-4,6-Dimethoxy-2-[(3,5-dimethylpyrrole)methylene]benzofuran-3(2H)-one] | –
15 | 3.37% | 34.9% | O=C1/C(=C/c2ccccc2)Oc2cc(O)cc(O)c21 [Example 7, (Z)-2-Benzylidene-(4,6-dihydroxy) benzofuran-3(2H)-one] | Inhibition of human tyrosinase after application on normal human melanocytes, percentage inhibition (Human tyrosinase; 10^-4M, 24 hours): 3.37 ± 4.8%; Inhibition of human tyrosinase after application on normal human melanocytes, percentage inhibition (Human tyrosinase; 10^-5M, 24 hours): 34.85 ± 3.04%
16 | 0% | 4.83% | O=C1/C(=C/c2ccc(S(=O)(=O)O)cc2)Oc2cc(O)cc(O)c21 [Example 7e] | –
17 | 5.43% | 26.9% | CCCc1ccc(/C=C2\Oc3cc(O)cc(O)c3C2=O)cc1 [Example 7h] | –

Row | inhibition at 100 µM (Human tyrosinase; 10^-4M, 24 hours) | inhibition at 10 µM (Human tyrosinase; 10^-5M, 24 hours) | SMILES | also measured
18 | 0% | 31.9% | CC(C)c1ccc(/C=C2\Oc3cc(O)cc(O)c3C2=O)cc1 [Example 7i] | –
19 | 0% | 25.1% | CC(C)(C)c1ccc(/C=C2\Oc3cc(O)cc(O)c3C2=O)cc1 [Example 7k] | –
20 | 0% | 6.1% | CCc1ccccc1/C=C1\Oc2cc(O)cc(O)c2C1=O [Example 7l] | –
21 | 23.6% | 6.4% | O=C1/C(=C/c2ccco2)Oc2cc(O)cc(O)c21 [Example 7m, (Z)-4,6-Dihydroxy-2-[(furan)methylene]benzofuran-3(2H)-one] | –
22 | 28.5% | 13.4% | CCc1ccc(/C=C2\Oc3cc(O)cc(O)c3C2=O)o1 [Example 7n, (Z)-4,6-Dihydroxy-2-[(5-ethylfuran)methylene]benzofuran-3(2H)-one] | –
23 | 13.6% | 4.5% | Cc1cc(/C=C2\Oc3cc(O)cc(O)c3C2=O)oc1C [Example 7o, (Z)-4,6-Dihydroxy-2-[(4,5-dimethylfuran)methylene]benzofuran-3(2H)-one] | –
24 | 35.2% | 15.3% | O=C1/C(=C/c2cccs2)Oc2cc(O)cc(O)c21 [Example 7p, (Z)-4,6-Dihydroxy-2-[(thiophene)methylene]benzofuran-3(2H)-one] | –
25 | 16.4% | 7% | Cc1ccc(/C=C2\Oc3cc(O)cc(O)c3C2=O)s1 [Example 7q, (Z)-4,6-Dihydroxy-2-[(5-methylthiophene)methylene]benzofuran-3(2H)-one] | –
26 | 13.8% | 0% | CCc1ccc(/C=C2\Oc3cc(O)cc(O)c3C2=O)s1 [Example 7r, (Z)-4,6-Dihydroxy-2-[(5-ethylthiophene)methylene]benzofuran-3(2H)-one] | –
27 | – | – | O=C1/C(=C/c2ccc[nH]2)Oc2cc(O)cc(O)c21 [Example 7s, (Z)-4,6-Dihydroxy-2-[(pyrrole)methylene]benzofuran-3(2H)-one] | inhibition at 10 µM (Human tyrosinase): 9.1%; inhibition at 100 µM (Human tyrosinase): 22.8%
28 | 26.4% | 0% | Cc1cc(C)c(/C=C2\Oc3cc(O)cc(O)c3C2=O)[nH]1 [Example 7t, (Z)-4,6-Dihydroxy-2-[(3,5-dimethylpyrrole)methylene]benzofuran-3(2H)-one] | –
29 | 10.7% | 14.1% | COc1ccc(/C=C2\Oc3cc(O)cc(O)c3C2=O)cc1 [Example 9, (Z)-4,6-Dihydroxy-2-(4-methoxybenzylidene)benzofuran-3(2H)-one] | –
30 | 5.25% | 19.9% | CCOc1ccc(/C=C2\Oc3cc(O)cc(O)c3C2=O)cc1 [Example 9a, (Z)-4,6-Dihydroxy-2-(4'-ethoxybenzylidene)benzofuran-3(2H)-one] | –
31 | 12.8% | 4.32% | O=C1/C(=C/c2ccccc2O)Oc2cc(O)cc(O)c21 [Example 9c] | –
32 | 3.92% | 20.2% | COc1cc(/C=C2\Oc3cc(O)cc(O)c3C2=O)ccc1O [Example 9d] | –
33 | – | – | O=c1cc(CO)occ1O [Kojic acid, kojic acid] | inhibition (positive control) (tyrosinase from mushroom): 45%
34 | – | – | O=C1O[C@H]([C@@H](O)CO)C(O)=C1O [VitC, Vitamin C, reference compound] | Inhibition (%) (Human tyrosinase; 0.03%): -5.68%; Inhibition (%) (Human tyrosinase; 0.3%): 49.28%; Inhibition (%) (Human tyrosinase; 3%): 97.77%
